# Experimental data from publication PMC7006651, “Effect of 6-Benzoyl-benzothiazol-2-one scaffold on the pharmacological profile of α-alkoxyphenylpropionic acid derived PPAR agonists” (Journal of Enzyme Inhibition and Medicinal Chemistry, 2020).
# Tests used:
# CaCO2 cells = assay: CaCo2 cell absorption (membrane permeability model); assay type: in vitro ADME; conditions: percentage of absorption
# Protocol: The in vivo effect of test compounds was determined by measuring glycaemia, triglyceridemia, insulinemia, and body weight using ob/ob mice (Table 3). The ob/ob mice were obese, insulin resistant with hypertriglyceridaemia and hyperglycaemia, and have been used as a rodent model of obesity-induced insulin resistance. […] As a side effect index, body weight was also measured daily, and body weight variation was calculated as a percentage of the difference in body weight between days 4 and 0. […] Benzoyl derivatives 32a, 41a and 42a were not evaluated in vivo with regard to their low absorption values with CaCO2 cells (< 25%), an in vitro model predicting membrane permeability. […] Indeed, incorporation of substituents such as methyl oxime ether and trifluoroethoxy group are benefiting for PPAR activity regulation and so for effective management of dyslipidemia without inducing body weight gain. […] The CF3 group incorporation, beyond keeping a good in vivo efficacy, provided a robust reduction of body weight induced with compound 44a, strengthening the beneficial pharmacological effect of C-H bond replacement with fluorine. Compound 44 b may be considered as a SPPARγM since this full PPARγ agonist retains the insulin-sensitizing and glucose-lowering actions while mitigating or eliminating the undesirable side effects.
# human PPARγ [1] = target: T1, human PPARγ (Homo sapiens, UniProt P37231); assay: Membrane-bound PPARγ binding assay ([3H]rosiglitazone competition, filtration); conditions: competition with [3H]rosiglitazone (4 nM), 180 min at 4 °C; read-out: Ki (nM), hPPARγ binding affinity
# T1 sequence (P37231 235-505 limits assumed): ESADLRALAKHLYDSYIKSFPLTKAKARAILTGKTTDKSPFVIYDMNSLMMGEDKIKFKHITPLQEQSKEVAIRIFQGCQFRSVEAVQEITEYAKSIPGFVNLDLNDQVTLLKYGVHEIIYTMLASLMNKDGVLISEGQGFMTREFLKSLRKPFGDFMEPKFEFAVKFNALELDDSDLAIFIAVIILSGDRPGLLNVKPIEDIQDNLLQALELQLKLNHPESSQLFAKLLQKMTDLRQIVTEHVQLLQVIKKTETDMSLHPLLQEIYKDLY
# Protocol: The membrane-associated PPARγ was used as the biological source as previously described. Binding buffer consisted of 10 mM Tris/HCl, pH 8.2, containing 50 mM KCl and 1 mM dithiothreitol. […] Radioactivity was measured in a TopCount apparatus (Packard).
# human PPARγ [2] = target: T2, human PPARγ (Homo sapiens, UniProt P37231); assay: Gene reporter (transactivation) assay, Cos-7 cells transfected with pGal4-hPPARγ; assay type: cell-based; conditions: Cos-7 cells, 24 h; for Emax: COS-7, 24 h, Emax relative to maximum activation with rosiglitazone (1 μM) = 100%, read-out: hPPAR gene reporter γGal4 (%); for EC50: GAL4 chimeric hPPARγ, read-out: hPPAR gene reporter γEC50;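 on all read-outs here: luciferase reporter (pG5-TK) activity normalised to cotransfected β-galactosidase, cells exposed to increasing compound concentrations in DMEM with 0.2% FCS, DMSO vehicle as control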
# T2 construct: expressed in transfected cells; host or cells: Cos-7
# T2 sequence (P37231 238-503 limits assumed): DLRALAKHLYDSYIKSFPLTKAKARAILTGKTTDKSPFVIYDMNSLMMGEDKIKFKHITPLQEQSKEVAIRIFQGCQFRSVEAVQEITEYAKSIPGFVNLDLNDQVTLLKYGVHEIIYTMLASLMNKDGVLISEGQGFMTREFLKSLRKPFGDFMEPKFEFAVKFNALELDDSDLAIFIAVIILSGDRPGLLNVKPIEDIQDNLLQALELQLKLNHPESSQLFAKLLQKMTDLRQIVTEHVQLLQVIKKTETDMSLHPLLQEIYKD
# Protocol: (§1) Cos-7 cells were transiently transfected with luciferase reporter plasmid (pG5-TK-pGL3) in the presence of pGal4-hPPARα or pGal4-hPPARγ (these vectors express chimeric proteins containing the Gal4 DNA-binding domain fused to the human PPARα or PPARγ ligand binding domain coding sequence) expression vector. […] Cells were transfected in OptiMEM without FCS for 3 h at 37°, using polyethylenimine (PEI), with reporter and expression plasmids, as stated in figure’s legend. The plasmid pBluescript (Stratagene, La Jolla, CA) was used as carrier DNA to set the final amount of DNA to 5.5 µg/dish. The pCMV- ß-galactosidase expression plasmid was cotransfected as a control for transfection efficiency. […] After 16 h, cells were trypsinised and seeded in 96-well plates at the density of 2 × 10^4 cells/well and incubated for 6 h in 10% FCS containing DMEM. Cells were then incubated for 24 h in DMEM containing 0.2% FCS and increasing concentrations of the compound tested or vehicle (DMSO). At the end of the experiment, cells were washed once with ice-cold PBS and the luciferase and the β–galactosidase assays were performed as described previously[20]. Cells were incubated 24 h in the presence of indicated concentrations of compound. Luciferase activity was measured and normalised to internal control β-galactosidase activity. […] EC50 were estimated using Prism software (GraphPad). All transfection experiments were performed at least three times.
# human PPARα = target: T3, human PPARα (Homo sapiens, UniProt Q07869); assay: Gene reporter (transactivation) assay, Cos-7 cells transfected with pGal4-hPPARα; assay type: cell-based; conditions: for Emax: COS-7, 24 h, Emax relative to maximum activation with WY14643 (10 µM) = 100%, read-out: hPPAR gene reporter αGal4 (%); for EC50: GAL4 chimeric hPPARα, 24 h, read-out: hPPAR gene reporter αEC50;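 on all read-outs here: luciferase signal from a Gal4-driven reporter normalised to cotransfected β-galactosidase activity, cells exposed to rising compound concentrations with DMSO vehicle as control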
# T3 construct: expressed in transfected cells; host or cells: Cos-7
# T3 sequence (Q07869 239-466 limits assumed): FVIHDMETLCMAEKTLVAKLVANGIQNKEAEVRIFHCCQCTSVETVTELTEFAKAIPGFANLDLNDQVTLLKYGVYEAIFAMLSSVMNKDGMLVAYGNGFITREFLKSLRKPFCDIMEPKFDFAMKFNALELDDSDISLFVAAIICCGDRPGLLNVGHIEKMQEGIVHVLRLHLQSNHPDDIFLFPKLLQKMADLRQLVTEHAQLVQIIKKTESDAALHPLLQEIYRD
# Protocol: as §1
# ob/ob mice = assay: In vivo ob/ob mice: glycaemia, triglyceridemia, insulinemia, body weight; conditions: oral, 4 days; for ΔBW (body weight variation between day 0 and day 4): expressed in % of rosiglitazone in the same study (= 100%), ob/ob mice; for ΔBW (body weight variation between day 0 and day 4) / Change (%) Gly (glycemia) / Change (%) Ins (insulin) / Change (%) TG (triglycerides): synthesised compounds 8.4 µMkg^−1, references 3 mgkg^−1; for Change (%) Gly (glycemia) / Change (%) Ins (insulin) / Change (%) TG (triglycerides): percent change versus control, ob/ob mice at day 4;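 on all read-outs here: male ob/ob mice aged 10–12 weeks, given the compound once daily by oral gavage as a 1% hydroxyethylcellulose suspension, 8–12 animals per group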
# Protocol: The glucose- and triglyceride-lowering activities of the compounds prepared were then tested using 10–12-week-old male ob/ob mice. […] Mice had access to filtered (0.22 mm) tap water ad libitum and irradiated pelleted laboratory chow (transbreed, Special Diet Services, England) throughout the study. Compounds were prepared as a suspension in 1% hydroxyethylcellulose (HEC) for oral administration (10 mLkg^−1). The mice (n = 8–12 per group) were dosed by gavage daily between 15:00 and 17:00 for 4 days. Randomisation was performed based on glycaemia values. The body weight gain (DBW in grams) of the animals was determined by measuring the difference between body weight at the beginning and end of the study for each mouse. At day 5 between 9:00 and 11:00 the mice were weighed, and blood samples were collected into heparin-containing tubes by retro-orbital puncture (500 mL per mouse). […] Plasma samples were prepared by centrifugation (2000 g for 10 min), and stored at −20 °C. For triglycerides and insulin determination, the percent change in plasma level in the treated group was calculated relative to the mean plasma level in the vehicle-treated group. ANOVA, followed by Dunnett’s comparison test (one-tailed) was used to estimate significant differences between the plasma glycaemia, triglycerides, insulin, and DBW values between the control group and the individual compound-treated groups.
Compound,melting point,absorption with CaCO2 cells (CaCo2 permeability) (CaCO2 cells),Ki (human PPARγ [1]),Emax (human PPARγ [2]),EC50 (human PPARγ [2]),Emax (human PPARα),EC50 (human PPARα),ΔBW (body weight variation between day 0 and day 4) (ob/ob mice),Change (%) Gly (glycemia) (ob/ob mice),Change (%) Ins (insulin) (ob/ob mice),Change (%) TG (triglycerides) (ob/ob mice),in vivo activity in ob/ob mice (ob/ob mice)
"CCOC(Cc1ccc(OCCn2c(=O)sc3cc(C(=O)c4ccccc4)ccc32)cc1)C(=O)O (centres unmarked) [Compound 32a, 3-{4-[2–(6-benzoyl-2-oxo-benzothiazol-3-yl)-ethoxy]-phenyl}-2-ethoxypropionic acid]",57 to 59 °C,< 25%,4 nM,≥ 80%,15 nM,≥ 80%,2400 nM,–,–,–,–,–
"CCO[C@@H](Cc1ccc(OCCn2c(=O)sc3cc(C(=O)c4ccccc4)ccc32)cc1)C(=O)O [Compound 41a, (S)-3-{4-[2–(6-benzoyl-2-oxo-benzothiazol-3-yl)-ethoxy]-phenyl}-2-ethoxypropionic acid]",57 to 59 °C,< 25%,0.5 nM,142%,8 nM,166%,522 nM,–,–,–,–,–
"CCO[C@H](Cc1ccc(OCCn2c(=O)sc3cc(C(=O)c4ccccc4)ccc32)cc1)C(=O)O [Compound 42a, (R)-3-{4-[2–(6-benzoyl-2-oxo-benzothiazol-3-yl)-ethoxy]-phenyl}-2-ethoxypropionic acid]",57 to 59 °C,< 25%,70 nM,39%,300 nM,0%,–,–,–,–,–,–
"CCO[C@@H](Cc1ccc(OCCn2c(=O)sc3cc(/C(=N/O)c4ccccc4)ccc32)cc1)C(=O)O [Compound 43a, (S)-3-{4-[2–(6-[(E)-hydroxyimino-phenyl-methyl]-2-oxo-benzothiazol-3-yl)-ethoxy]-phenyl}-2-ethoxypropionic acid]",84 to 85 °C,–,0.5 nM,123%,16 nM,153%,–,113%,−55%,−29%,−33%,–

# The next lines start with results.
melting point,absorption with CaCO2 cells (CaCo2 permeability) (CaCO2 cells),Ki (human PPARγ [1]),Emax (human PPARγ [2]),EC50 (human PPARγ [2]),Emax (human PPARα),EC50 (human PPARα),Compound,ΔBW (body weight variation between day 0 and day 4) (ob/ob mice),Change (%) Gly (glycemia) (ob/ob mice),Change (%) Ins (insulin) (ob/ob mice),Change (%) TG (triglycerides) (ob/ob mice),in vivo activity in ob/ob mice (ob/ob mice)
151 to 152 °C,–,0.7 nM,115%,2 nM,154%,32 nM,"CCO[C@@H](Cc1ccc(OCCn2c(=O)sc3cc(/C(=N/OC)c4ccccc4)ccc32)cc1)C(=O)O [Compound 44a, (S)-3-{4-[2–(6-[(E)-methoxyimino-phenyl-methyl]-2-oxo-benzothiazol-3-yl)-ethoxy]-phenyl}-2-ethoxypropionic acid]",177%,−46%,−81%,−79%,–
84 to 85 °C,31%,210 nM,66%,799 nM,30%,–,"CCO[C@H](Cc1ccc(OCCn2c(=O)sc3cc(/C(=N/O)c4ccccc4)ccc32)cc1)C(=O)O [Compound 45a, (R)-3-{4-[2–(6-[(E)-hydroxyimino-phenyl-methyl]-2-oxo-benzothiazol-3-yl)-ethoxy]-phenyl}-2-ethoxypropionic acid]",328%,−7%,51%,21%,inactive
